# From patent US11415579B2, “Assay for measuring a rate of reaction between a target and a ligand candidate” (Imperial College Innovations Ltd., priority 2016, dated 2022)
# Legend:
# Cdk2(C177A, F80C) = target: T1, Cdk2(C177A, F80C) (Homo sapiens, UniProt P24941, C177A/F80C); assay: Kinetic thiol consumption assay with Cdk2 mutant F80C, incl. kobs versus concentration (Kd, k2); format: binding; parameters: key to Rate enhancement, Cdk2 F80C: Cdk2 rate constant divided by model-thiol rate constant; settings: additional mutation C177A; for Rate constant with Cdk2 F80C: Protein: Cdk2, cysteine position F80C, in h^-1
# T1 construct: poly-histidine; made in house; host or cells: E. coli
# Method in brief: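 His-tagged Cdk2(C177A/F80C) from E. coli or model thiol, 5 μM in degassed phosphate buffer pH 8 with TCEP beads, reacted with acrylamide ligands; fluorescence (ex/em 380/470 nm) normalized to DMSO control and fitted to first-order decay for kobs. Kd and k2 obtained from hyperbolic fit of kobs versus ligand concentration.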
# Cdk2(S181C) (C177A) = target: T2, Cdk2(S181C) (C177A) (Homo sapiens, UniProt P24941, C177A/S181C); assay: Kinetic thiol consumption assay with Cdk2 mutant S181C; format: binding; parameters: key to Rate enhancement, Cdk2 S181C: rate constant with Cdk2 ÷ rate constant with model thiol (fold); settings: additional mutation C177A; for Rate constant with Cdk2 S181C: Protein: Cdk2, cysteine position S181C, in h^-1
# T2 construct: poly-histidine; made in house; host or cells: E. coli
# Method in brief: (§1)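 5 μM thiol, degassed phosphate pH 8, 2% v/v immobilized TCEP beads; 1 h RT; fluorescence ex 380/em 470 nm; normalized vs DMSO/thiol-only; first-order exponential decay fit → rate constant; Cdk2 k / model-thiol k = rate enhancement per acrylamide.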
# Cdk2(N272C) (C177A) = target: T3, Cdk2(N272C) (C177A) (Homo sapiens, UniProt P24941, C177A/N272C); assay: Kinetic thiol consumption assay with Cdk2 mutant N272C; format: binding; parameters: key to Rate enhancement, Cdk2 N272: rate constant with Cdk2 ÷ rate constant with model thiol (fold); settings: for Rate enhancement, Cdk2 N272: Cdk2 N272, additional mutation C177A; for Rate constant with Cdk2 N272C: Protein: Cdk2, cysteine position N272C, additional mutation C177A, in h^-1
# T3 construct: poly-histidine; made in house; host or cells: E. coli
# Method in brief: as §1
# Cdk2(T182C) (C177A) = target: T4, Cdk2(T182C) (C177A) (Homo sapiens, UniProt P24941, C177A/T182C); assay: Kinetic thiol consumption assay with Cdk2 mutant T182C; format: binding; parameters: key to Rate enhancement, Cdk2 T182C: rate constant with Cdk2 ÷ rate constant with model thiol (fold); settings: additional mutation C177A; for Rate constant with Cdk2 T182C: Protein: Cdk2, cysteine position T182C, in h^-1
# T4 construct: poly-histidine; made in house; host or cells: E. coli
# Method in brief: as §1
# [1] = Kinetic thiol consumption assay with model thiol glutathione; format: physicochemical; parameters: Rate constant with glutathione (k(GSH)): unit not given here; settings: for Rate constant with glutathione (k(GSH)): 500 μM ligand, 5 μM thiol, phosphate buffer pH 8; for Rate constant with Glutathione: Protein: Glutathione, cysteine position NA, in h-1
# Method in brief: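 First, 5 μM glutathione in degassed phosphate buffer (pH 8) receives immobilized TCEP beads (2% v/v). Then acrylamide is added and plates incubate 1 h at room temperature. Finally, fluorescence (380/470 nm) is normalized and fitted to first-order decay for rate constants.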
# Cdk2[C177A, F80C, K278C] = target: T5, Cdk2[C177A, F80C, K278C] (Homo sapiens, UniProt P24941, C177A/F80C/K278C); assay: Kinetic thiol consumption assay with mutant Cdk2 as model thiol; format: binding; parameters: unit not given here; settings: 500 μM ligand, 5 μM thiol, phosphate buffer pH 8
# T5 construct: poly-histidine; made in house; host or cells: E. coli
# Method in brief: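 Model thiol: His-tagged human Cdk2 C177A/F80C/K278C (two engineered surface cysteines), E. coli-expressed, 5 μM in degassed phosphate buffer pH 8 with immobilized TCEP beads (2% v/v). Fluorescence (ex/em 380/470 nm) followed over time at room temperature, normalized to DMSO/thiol control. First-order decay fit gives rate constants.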
# Cdk2(H71C) (C177A) = target: T6, Cdk2(H71C) (C177A) (Homo sapiens, UniProt P24941, C177A/H71C); assay: Kinetic thiol consumption assay with Cdk2 mutant H71C; format: binding; parameters: key to Rate enhancement, Cdk2 H71C: rate constant with Cdk2 ÷ rate constant with model thiol (fold); settings: additional mutation C177A; for Rate constant with Cdk2 H71C: Protein: Cdk2, cysteine position H71C, in h^-1
# T6 construct: poly-histidine; made in house; host or cells: E. coli
# Method in brief: as §1
# Cdk2(R122C) (C177A) = target: T7, Cdk2(R122C) (C177A) (Homo sapiens, UniProt P24941, C177A/R122C); assay: Kinetic thiol consumption assay with Cdk2 mutant R122C; format: binding; parameters: key to Rate enhancement, Cdk2 R122C: rate constant with Cdk2 ÷ rate constant with model thiol (fold); settings: additional mutation C177A; for Rate constant with Cdk2 R122C: Protein: Cdk2, cysteine position R122C, in h-1
# T7 construct: poly-histidine; made in house; host or cells: E. coli
# Method in brief: as §1
# [2] = target: T8, human cyclin-dependent kinase 2 (Cdk2) (Homo sapiens, UniProt P24941); assay: Kinetic thiol consumption assay with wild type Cdk2 (C177); format: binding; parameters: key to Rate enhancement, Cdk2 WT: k(Cdk2) divided by k(model thiol); Rate constant with Cdk2 (k(Cdk2)): unit not given here; settings: for Rate constant with Cdk2 (k(Cdk2)): 500 μM ligand, 5 μM thiol, phosphate buffer pH 8; for Rate enhancement, Cdk2 WT: no additional mutations; for Rate constant with Cdk2 WT: Protein: Cdk2, cysteine position WT, in h^-1; for k(Cdk2)/k(Cdk2_mut) rate enhancement: model thiol Cdk2[C177A, F80C, K278C]; for k(Cdk2)/k(GSH) rate enhancement: model thiol glutathione
# T8 construct: poly-histidine; made in house; host or cells: E. coli
# Method in brief: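 His-tagged human Cdk2 (single surface cysteine C177), expressed in E. coli, or a model thiol at 5 μM in degassed phosphate buffer pH 8 was pre-treated with immobilized TCEP beads (2% v/v) before acrylamide addition. Fluorescence (ex/em 380/470 nm) was read after 1 h at room temperature, normalized to DMSO/thiol-only control and plotted versus time.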
# Cdk2(S276C) (C177A) = target: T9, Cdk2(S276C) (C177A) (Homo sapiens, UniProt P24941, C177A/S276C); assay: Kinetic thiol consumption assay with Cdk2 mutant S276C; format: binding; parameters: key to Rate enhancement, Cdk2 S276C: rate constant with Cdk2 ÷ rate constant with model thiol (fold); settings: additional mutation C177A; for Rate constant with Cdk2 S276C: Protein: Cdk2, cysteine position S276C, in h^-1
# T9 construct: poly-histidine; made in house; host or cells: E. coli
# Method in brief: as §1
smiles,measurement,setting,value
C=CC(=O)NC1(c2noc(C)n2)CCCCCC1 [CA-162],"Rate enhancement, Cdk2 F80C","Cdk2(C177A, F80C)",0.05133
same,Rate constant with Cdk2 F80C,"Cdk2(C177A, F80C)",0.003047
same,"Rate enhancement, Cdk2 S181C",Cdk2(S181C) (C177A),0.1273
same,Rate constant with Cdk2 S181C,Cdk2(S181C) (C177A),0.007555
same,"Rate enhancement, Cdk2 N272",Cdk2(N272C) (C177A),0.3725
same,Rate constant with Cdk2 N272C,Cdk2(N272C) (C177A),0.02211
same,"Rate enhancement, Cdk2 T182C",Cdk2(T182C) (C177A),6.607
same,Rate constant with Cdk2 T182C,Cdk2(T182C) (C177A),0.3922
same,Rate constant with glutathione (k(GSH)),[1],0.02564
same,Rate constant with Glutathione,[1],0.05936
same,"Rate constant with Cdk2[C177A, F80C, K278C] (k(Cdk2_mut))","Cdk2[C177A, F80C, K278C]",0.00171
same,"Rate enhancement, Cdk2 H71C",Cdk2(H71C) (C177A),0.4092
same,Rate constant with Cdk2 H71C,Cdk2(H71C) (C177A),0.02429
same,"Rate enhancement, Cdk2 R122C",Cdk2(R122C) (C177A),0.1023
same,Rate constant with Cdk2 R122C,Cdk2(R122C) (C177A),0.006071
same,Rate constant with Cdk2 (k(Cdk2)),[2],0.02529
same,"Rate enhancement, Cdk2 WT",[2],0.5566
same,Rate constant with Cdk2 WT,[2],0.03304
same,k(Cdk2)/k(Cdk2_mut) rate enhancement,[2],14.75
same,k(Cdk2)/k(GSH) rate enhancement,[2],0.9863
same,"Rate enhancement, Cdk2 S276C",Cdk2(S276C) (C177A),1.07
same,Rate constant with Cdk2 S276C,Cdk2(S276C) (C177A),0.06352
C=CC(=O)Nc1cccc2ncccc12 [CA-012],"Rate enhancement, Cdk2 F80C","Cdk2(C177A, F80C)",3.888
same,Rate constant with Cdk2 F80C,"Cdk2(C177A, F80C)",0.202
same,"Rate enhancement, Cdk2 S181C",Cdk2(S181C) (C177A),2.504
same,Rate constant with Cdk2 S181C,Cdk2(S181C) (C177A),0.1301
same,"Rate enhancement, Cdk2 N272",Cdk2(N272C) (C177A),0.4189
same,Rate constant with Cdk2 N272C,Cdk2(N272C) (C177A),0.02176
same,"Rate enhancement, Cdk2 T182C",Cdk2(T182C) (C177A),5.8
same,Rate constant with Cdk2 T182C,Cdk2(T182C) (C177A),0.3013
same,Rate constant with glutathione (k(GSH)),[1],0.05132
same,Rate constant with Glutathione,[1],0.05195
same,"Rate constant with Cdk2[C177A, F80C, K278C] (k(Cdk2_mut))","Cdk2[C177A, F80C, K278C]",0.4157
same,"Rate enhancement, Cdk2 H71C",Cdk2(H71C) (C177A),0.317
same,Rate constant with Cdk2 H71C,Cdk2(H71C) (C177A),0.01647
same,"Rate enhancement, Cdk2 R122C",Cdk2(R122C) (C177A),0.6897
same,Rate constant with Cdk2 R122C,Cdk2(R122C) (C177A),0.03583
same,Rate constant with Cdk2 (k(Cdk2)),[2],0.09635
same,"Rate enhancement, Cdk2 WT",[2],1.855
same,Rate constant with Cdk2 WT,[2],0.09635
same,k(Cdk2)/k(Cdk2_mut) rate enhancement,[2],0.2318
same,k(Cdk2)/k(GSH) rate enhancement,[2],1.877
same,"Rate enhancement, Cdk2 S276C",Cdk2(S276C) (C177A),0.9852
same,Rate constant with Cdk2 S276C,Cdk2(S276C) (C177A),0.05118
C=CC(=O)NCCCN(C(=O)C1CCC1)C1CC1 [CA-060],Rate constant with Cdk2 F80C,"Cdk2(C177A, F80C)",~0.0004944
same,"Rate enhancement, Cdk2 S181C",Cdk2(S181C) (C177A),0.7812
same,Rate constant with Cdk2 S181C,Cdk2(S181C) (C177A),0.004014
same,"Rate enhancement, Cdk2 N272",Cdk2(N272C) (C177A),3.677
same,Rate constant with Cdk2 N272C,Cdk2(N272C) (C177A),0.01889
same,"Rate enhancement, Cdk2 T182C",Cdk2(T182C) (C177A),1.619
same,Rate constant with Cdk2 T182C,Cdk2(T182C) (C177A),0.00832
same,Rate constant with glutathione (k(GSH)),[1],0.00283
same,Rate constant with Glutathione,[1],0.005138
same,"Rate constant with Cdk2[C177A, F80C, K278C] (k(Cdk2_mut))","Cdk2[C177A, F80C, K278C]",0.00223
same,"Rate enhancement, Cdk2 H71C",Cdk2(H71C) (C177A),0
same,"Rate enhancement, Cdk2 R122C",Cdk2(R122C) (C177A),0.4675
same,Rate constant with Cdk2 R122C,Cdk2(R122C) (C177A),0.002402
same,Rate constant with Cdk2 (k(Cdk2)),[2],0.00226
same,"Rate enhancement, Cdk2 WT",[2],0.7143
same,Rate constant with Cdk2 WT,[2],0.00367
same,k(Cdk2)/k(Cdk2_mut) rate enhancement,[2],1.013
same,k(Cdk2)/k(GSH) rate enhancement,[2],0.7988
same,"Rate enhancement, Cdk2 S276C",Cdk2(S276C) (C177A),1.112
same,Rate constant with Cdk2 S276C,Cdk2(S276C) (C177A),0.005711
